Laboratory results reported in PubChem BioAssay AID2060327 (Molecular Pharmacology Branch, DTP, NCI, 2025).
pIC50: −log10 of the molar value. Values joined by “and” are separate entries in the source; they are usually repeats but may differ in a detail not shown here. Identical values can stand only once.

System: PC-3 multi-cell spheroids, viability
Test: Anticancer human tumor PC-3 cell line growth inhibition [IpAb];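 also: spheroids exposed to compounds for 7 days before readout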;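 as to viability, T/C: 100% = DMSO vehicle control wells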
Settings: for viability, T/C: stronger effect = lower value
Excerpt: Combinatorial screen of targeted agents with ipatasertib and abemaciclib in multi-cell type tumor spheroids
A high-throughput screen of multi-cell type tumor spheroids was designed to identify active combinations of targeted small molecules and ipatasertib or abemaciclib. Complex spheroids include a stromal component modeled by human endothelial cells (HUVEC) and fibroblasts modeled by human mesenchymal stem cells (MSCs). The concentration ranges selected for each drug and investigational agent were based upon clinically achievable concentrations if the clinical Cmax of the agent was known.
Compounds. The drugs and investigational agents: ipatasertib (NSC767898), abemaciclib(NSC768073), selumetinib (NSC741078), trametinib (758246), adavosertib (NSC754352), everolimus (NSC733504), sapanisertib (NSC764658), vemurafenib (NSC761431), venetoclax (NSC766270), copanlisib (NSC809693), apelisib (NSC765974), palbociblib (NSC758247), vemurafenib (NSC761431), dabrafenib (NSC764134), ravoxertinib (NSC781343), BMS-387032 (NSC767048), sotorasib (NSC818433), talazoparib (NSC767125) and afursertib (NSC778305), were obtained from the National Cancer Institute (NCI) Developmental Therapeutics Program Chemical Repository. The FDA-approved anticancer drug set is available from the NCI Developmental Therapeutics Program. […] The stock solutions were prepared in dimethyl sulfoxide (DMSO, Sigma-Aldrich, St. Louis, MO, cat. D2650) at 800-fold the tested concentration and stored at -70 degrees C prior to their use. All drugs and investigational agents were tested over a range starting from a high concentration at or near the clinical Cmax and decreasing in half-log increments. If the clinical Cmax for an agent had not been determined, the highest concentration tested was 10 microM.
NCI60 Cell Culture. NCI60 cell lines were obtained from the NCI Developmental Therapeutics Program Tumor Repository. For each lot of cells, the Repository performed Applied Biosystems AmpFLSTR Identifiler testing with PCR amplification to confirm consistency with the published Identifier STR profile for each cell line. Cells were kept in continuous culture for no more than 20 passages. The optimal seeding densities for each of the cell lines at each time point assessed were determined prior to performing the concentration response studies. Briefly, the NCI60 human tumor lines were grown as monolayers in RPMI 1640 medium supplemented with 10% FBS and 2 mmol/L L-glutamine.
An additional 9 lines were from the NCI60 cell line panel including MDA-MB-231 breast carcinoma, MDA-MB-468 breast carcinoma, MCF7 breast carcinoma, Hs578T breast carcinoma, MALME-3M melanoma, SK-MEL-2 melanoma, SK-OV-3 ovarian carcinoma, DU-145 prostate carcinoma, PC-3 prostate carcinoma, all cell lines along with major genetic alterations are listed on Table 2. Pooled donor human umbilical vein endothelial cells (HUVEC, Lonza, cat. CC-2519) and human mesenchymal stem cells (hMSC, Lonza, cat. PT-2501) were purchased from Lonza (Walkersville, MD).
PDMR cell lines were grown in complete medium (DC medium): Dulbecco's modified Eagle's medium (DMEM)/F12 supplemented with 5% fetal bovine serum (FBS), 2 mM L-glutamine, 100 U/mL penicillin and 100 µg/ml streptomycin, 0.4 µg/ml hydrocortisone, 10 ng/ml epidermal growth factor (EGF) recombinant human protein, 24 µg/mL adenine, and 0.1 mg/mL primocin. During culture from frozen stock vials, PDMR cells were cultured in the same medium containing 10 µM Y-27632 (see Table 3). The PDCs were cultured in complete DMEM/F12 media without 10 microM Y-27632 dihydrochloride for at least two passages prior to the screen. The pooled donor HUVEC and hMSC were cultured in endothelial cell growth medium 2 (PromoCell, Heidelberg, Germany, cat. C-22011) and mesenchymal stem cell growth medium 2 (PromoCell, cat. C-28009), respectively. For all experiments, HUVEC and hMSC were used at passages </=5.
[…]

## C=CC(=O)N1CCN(c2nc(=O)n(-c3c(C)ccnc3C(C)C)c3nc(-c4c(O)cccc4F)c(F)cc23)C(C)C1 (stereo not drawn)
Compound 0.0316 µM
  viability, T/C: 108% and 98.7%
Compound 0.1 µM
  viability, T/C: 100% and 108%
Compound 0.316 µM
  viability, T/C: 90.2% and 99.7%
Compound 1 µM
  viability, T/C: 110% and 112%
Compound 3.16 µM
  viability, T/C: 122%
Compound 10 µM
  viability, T/C: 79.6% and 119%
Curve of compound
  pIC50: < 5.00

## C=CCn1c(=O)c2cnc(Nc3ccc(N4CCN(C)CC4)cc3)nc2n1-c1cccc(C(C)(C)O)n1
Compound 0.0316 µM
  viability, T/C: 102% and 104%
Compound 0.1 µM
  viability, T/C: 94% and 92.4%
Compound 0.316 µM
  viability, T/C: 68.1% and 67.3%
Compound 1 µM
  viability, T/C: 23.1% and 31.4%
Compound 3.16 µM
  viability, T/C: 26.6% and 22.3%
Compound 10 µM
  viability, T/C: 26.4% and 23.9%
Curve of compound
  pIC50: 6.29 and 6.26

## CC(=O)c1c(C)c2cnc(Nc3ccc(N4CCNCC4)cn3)nc2n(C2CCCC2)c1=O
Compound 0.000949 µM
  viability, T/C: 95.8% and 105%
Compound 0.003 µM
  viability, T/C: 96.3% and 95.7%
Compound 0.00949 µM
  viability, T/C: 88.9% and 83.5%
Compound 0.03 µM
  viability, T/C: 63.2% and 72.3%
Compound 0.0949 µM
  viability, T/C: 56.1% and 64.3%
Compound 0.3 µM
  viability, T/C: 62.9% and 61.2%
Curve of compound
  pIC50: < 6.52

## CC(C)(C)c1cnc(CSc2cnc(NC(=O)C3CCNCC3)s2)o1
Compound 0.00949 µM
  viability, T/C: 100% and 112%
Compound 0.03 µM
  viability, T/C: 119% and 114%
Compound 0.0949 µM
  viability, T/C: 108% and 120%
Compound 0.3 µM
  viability, T/C: 16.7% and 4.98%
Compound 0.949 µM
  viability, T/C: 6.38% and 6.26%
Compound 3 µM
  viability, T/C: 6.95% and 7.36%
Curve of compound
  pIC50: 6.71 and 6.72

## CC(C)NCC(C(=O)N1CCN(c2ncnc3c2C(C)CC3O)CC1)c1ccc(Cl)cc1 (stereo not drawn)
Compound 0.1 µM
  viability, T/C: 72.9% [middle of 13 runs]
Compound 0.316 µM
  viability, T/C: 43.7% [middle of 13 runs]
Compound 1 µM
  viability, T/C: 24.7% [middle of 12 runs]
Compound 3.16 µM
  viability, T/C: 14.9% [middle of 12 runs]
Compound 10 µM
  viability, T/C: 13.3% [middle of 13 runs]
Compound alone, run of 44348
  IC50: 249 nM [middle of 13 runs]

## CC(C)n1nc(-c2ccc3oc(N)nc3c2)c2c(N)ncnc21
Compound 0.000316 µM
  viability, T/C: 93% and 98.7%
Compound 0.001 µM
  viability, T/C: 55.6% and 81.3%
Compound 0.00316 µM
  viability, T/C: 42.7% and 57.6%
Compound 0.01 µM
  viability, T/C: 25.8% and 25%
Compound 0.0316 µM
  viability, T/C: 11.9% and 12.8%
Compound 0.1 µM
  viability, T/C: 9.65% and 10.2%
Curve of compound
  pIC50: 8.77 and 8.41

## CC1(C)CCC(CN2CCN(c3ccc(C(=O)NS(=O)(=O)c4ccc(NCC5CCOCC5)c([N+](=O)[O-])c4)c(Oc4cnc5[nH]ccc5c4)c3)CC2)=C(c2ccc(Cl)cc2)C1
Compound 0.0316 µM
  viability, T/C: 105% and 102%
Compound 0.1 µM
  viability, T/C: 107% and 108%
Compound 0.316 µM
  viability, T/C: 105% and 112%
Compound 1 µM
  viability, T/C: 107% and 108%
Compound 3.16 µM
  viability, T/C: 85.4% and 109%
Compound 10 µM
  viability, T/C: 3.66% and 4.01%
Curve of compound
  pIC50: 5.28 and 5.22

## CCCS(=O)(=O)Nc1ccc(F)c(C(=O)c2c[nH]c3ncc(-c4ccc(Cl)cc4)cc23)c1F
Compound 0.0316 µM
  viability, T/C: 118% and 111%
Compound 0.1 µM
  viability, T/C: 106% and 99.5%
Compound 0.316 µM
  viability, T/C: 114% and 111%
Compound 1 µM
  viability, T/C: 111% and 101%
Compound 3.16 µM
  viability, T/C: 118% and 112%
Compound 10 µM
  viability, T/C: 72.7% and 67.1%
Curve of compound
  pIC50: < 5.00

## CCN1CCN(Cc2ccc(Nc3ncc(F)c(-c4cc(F)c5nc(C)n(C(C)C)c5c4)n3)nc2)CC1
Compound alone, run of 44348
  pIC50: < 6.00 and 6.30

## COc1c(OCCCN2CCOCC2)ccc2c3n(c(=NC(=O)c4cnc(N)nc4)nc12)CCN3
Compound 0.00316 µM
  viability, T/C: 97.6% and 101%
Compound 0.01 µM
  viability, T/C: 79% and 99.4%
Compound 0.0316 µM
  viability, T/C: 47.7% and 104%
Compound 0.1 µM
  viability, T/C: 21.7% and 69.3%
Compound 0.316 µM
  viability, T/C: 6.8% and 11.9%
Compound 1 µM
  viability, T/C: 5.07% and 9.47%
Curve of compound
  pIC50: 7.53 and 6.84
